Laboratory results as given in patent US20220072101A1, “HARNESSING INFLAMMATION TO TREAT NEURODEVELOPMENTAL DISORDERS” (President and Fellows of Harvard College, priority 2019, published 2022).
“Also recorded” adds a separate entry of the source.

Key:
Assay type in all cases: in vivo, mouse
[1] = system: Cntnap2, Fmr1, and Shank3 mutant mice; assay: Three-chamber social approach assay in monogenic mutant mice; conditions: Cntnap2, Fmr1 and Shank3 mutant mice; LPS i.p.; 4 hours
Description: All experiments were performed according to Guide for the Care and Use of Laboratory Animals and were approved by the National Institutes of Health and the Committee on Animal Care at Massachusetts Institute of Technology. C57BL/6 were purchased from Taconic Biosciences for generating PBS and MIA offspring. Vgat-Cre (028862) were purchased from Jackson Laboratories and inbred. For monogenic experiments, C57BL/6, Cntnap2 (017482), Fmr1 (003025), and Shank3 (017688) mice were purchased from Jackson Laboratories and inbred after colonizing with SFB from donor mice. IL-17Ra^fl/fl and IL-17RaKO were previously described^24,25. All mice were males aged 2-5 months, unless otherwise specified.
(§1) Adult male mice were assayed for sociability using a three-chamber social approach assay. The arena was constructed of white acrylic (50 cm×35 cm×30 cm). Wire cups (Spectrum Diversified®) were placed in the back left and right corner of the arena beneath water-filled 1 L bottles (Nalgene®). On day 0, mice were habituated to the arena for 10 min. Immediately following habituation, mice were singly housed. On day 1 (Pre), mice were placed in the center of the arena and allowed to freely explore. Following 10 min, mice were confined to the center of the arena. An inanimate object (rubber stopper) or a male conspecific were placed beneath the wire cups. Placement of the inanimate object and social target were alternated. Mice were then allowed to freely explore the arena for 10 min. Interaction time was defined as time spent in the areas circumscribing the wire cups (<2 cm). Sociability was defined as interaction time with the social target divided by total interaction time and expressed as a percentage. For experiments involving LPS injections, mice were injected with either saline (Veh) or LPS ([…], i.p., L2630, Sigma) on day 2 (Test), four hours prior to testing. For the experiment assaying sociability 72 hrs following LPS injection, mice used for 4 hr LPS sociability experiments were tested for sociability again at 72 hrs. […]

BBB = BBB permeability (Evans blue)
Description: BBB permeability was assessed with Evans blue (Sigma Aldrich®). The Evans blue dye binds to serum albumin (69,000 Da) to become a high-molecular-weight protein tracer. Mice were injected with 100 μl of Evans blue solution (10 mg/kg in PBS) intravenously. After 30 min, all injected mice were sacrificed. Whole brains were then removed and photographed. The brain tissues were disrupted in lysis buffer at full speed for 60 seconds using a Micro-Homogenizer (VWR International®). The fluorescence was determined using a Spectrophotometer (BioTek Instruments®) with excitation at 620 nm and emission at 680 nm.

MIA offspring [2] = assay: Reciprocal social interaction assay; conditions: four hours after LPS
Description: Four hours prior to testing, mice were injected with vehicle or LPS. Two unfamiliar mice of the same treatment and background were placed in a fresh mouse cage and allowed to freely interact for 10 min. Videos were acquired using IC Capture (The Imaging Source®) at 640×480 aspect ratio and 25 fps. Social interaction (close following, push-crawl, nose-nose sniffing, and nose-anus sniffing) was scored by an observer blind to treatment and background^27.

MIA offspring [3] = assay: Three-chamber social approach assay in PBS and MIA offspring
Description: as §1, with “Day” for “day”, “with” for “with either saline (Veh) or”, “testing.” for “testing. For the experiment assaying sociability 72 hrs following LPS injection, mice used for 4 hr LPS sociability experiments were tested for sociability again at 72 hrs.”
Adult male mice were implanted with cannula into S1DZ and allowed to recover for >2 weeks prior to behavioral experiments. On Day 1 (Pre) mice were assayed for sociability. On Day 2 (Test), mice were anesthetized briefly using isoflurane and either vehicle or IL-17a (50 ng/side in 1 μl at a rate of 180 nl/min, 7956-ML/CF, R&D®) was administered bilaterally into S1DZ through 250 μm-projecting injector tips (PlasticsOne®). Four hours after vehicle or IL-17a administration, mice were assayed for sociability. Cannula placements were verified using histology.
Adult male mice were assayed for sociability using a three-chamber social approach assay. The arena was constructed of white acrylic (50 cm×35 cm×30 cm). Wire cups (Spectrum Diversified®) were placed in the back left and right corner of the arena beneath water-filled 1 L bottles (Nalgene®). On day 0, mice were habituated to the arena for 10 min. Immediately following habituation, mice were singly housed. On day 1 (Pre), mice were placed in the center of the arena and allowed to freely explore. Following 10 min, mice were confined to the center of the arena. An inanimate object (rubber stopper) or a male conspecific were placed beneath the wire cups. Placement of the inanimate object and social target were alternated. Mice were then allowed to freely explore the arena for 10 min. Interaction time was defined as time spent in the areas circumscribing the wire cups (<2 cm). Sociability was defined as interaction time with the social target divided by total interaction time and expressed as a percentage. For experiments involving LPS injections, mice were injected with either saline (Veh) or LPS ([…], i.p., L2630, Sigma) on day 2 (Test), four hours prior to testing. For the experiment assaying sociability 72 hrs following LPS injection, mice used for 4 hr LPS sociability experiments were tested for sociability again at 72 hrs.
Adult male Vgat-Cre MIA offspring were bilaterally injected with virus encoding the inhibitory DREADD receptor fused to mCherry into the vLPO. Following >3 weeks of recovery, mice were assayed on the three-chamber social approach assay outlined above. Baseline sociability was assayed on day 1 (Pre). On day 2 and day 3, mice were injected with either Saline (Veh) or CNO (1.5 mg/kg i.p., BML-NS105, Enzo Life Sciences®), two hours prior to initiation of behavior. Injection order was counterbalanced. Following behavioral experiments, post-mortem histology was used to confirm mCherry expression within the vLPO. For experiments assaying the effect of CNO and LPS injection in Vgat-Cre PBS and MIA offspring that have not undergone surgery, baseline sociability was assessed on day 1. On day 2 and 3 mice received counterbalanced injections of CNO or vehicle. On day 4, mice were injected with LPS. […]

lipopolysaccharide [LPS]
sociability after LPS [1]: failed to restore sociability in mutant mice deficient for Cntnap2, Fmr1, and Shank3
BBB permeability (leakage of i.v. Evans Blue into the brain) (BBB; MIA offspring, LPS 3.5 hr before Evans Blue): can increase BBB permeability
LPS-induced increase in EB leakage in knockout animals (BBB; animals genetically deficient for IFNγ or IL-17a): prevented in animals genetically deficient for IFNγ, but not IL-17a
reciprocal social interaction (MIA offspring [2]): rescue of MIA sociability deficits was also evident
sociability deficits (MIA offspring [3]; IFNγ or IL-17a knockout (KO) MIA offspring, LPS i.p., 4 hours): failed to rescue the sociability deficits in IFNγ or IL-17a knockout (KO) MIA offspring
LPS-induced rescue of sociability by age (MIA offspring [3]; MIA mice, young (2-5 months) and aged (9-12 month), 4 hr after LPS): observed in both young (2-5 months) and aged (9-12 month) mice; also recorded: effective in aged mice
sociability (deficit in sociability) (MIA offspring [3]; MIA offspring (WT), LPS 50 μg/kg i.p., 4 hours after injection): temporarily rescued; also recorded: robustly rescued their characteristic deficits in sociability; also recorded: restored sociability; also recorded: rescues sociability deficits in MIA offspring
sociability (MIA offspring [3]; MIA offspring deficient for IL-17Ra in the S1DZ (IL-17Ra fl/fl; EGFP:nCre), LPS i.p., 4 hours): failed to restore sociability
sociability rescue 72 hours following LPS (MIA offspring [3]; MIA offspring, 72 hours after LPS treatment): behavioral rescue was absent 72 hours following LPS treatment; also recorded: absent 72 hours following the treatment; also recorded: transient
baseline sociability (MIA offspring [3]; PBS (control) offspring, LPS i.p., 4 hours after injection): Neither vehicle nor LPS injection affected baseline sociability in PBS offspring; also recorded: did not affect baseline sociability in control offspring
sociability in MIA Vgat-Cre mice (MIA offspring [3]; Vgat-Cre MIA offspring without surgery, CNO 1.5 mg/kg i.p. or LPS): showed an increase in sociability upon LPS treatment
